{"source": "patent US20040014639A1", "about": "“Product and method for control of obesity” (priority 2000, published 2004)", "key": {"[1]": {"tested_on": "3T3-F442 cells", "assay": "in vitro lipolysis (glycerol release), 1 hour incubation", "assay_type": "cell-based, mouse", "conditions": "for shape of lipolytic dose response: 1 hour, varying concentrations, agent alone", "description": "Referring now to FIG. 1, 3T3-F442 cells (an immortal mouse adipocyte cell line) were incubated for 1 hour with varying concentrations of the rodent beta 3 agonist BRL 37344. […] In a third sample, AOD 9604 and BRL 37344 were co-administered with varying concentrations of AOD 9604, together with the maximal concentration of 1 μM of the BRL 37344."}, "[2]": {"tested_on": "adipocytes", "assay": "sensitisation of adipocytes to beta 3 agonist: 4 hour pre-incubation, then BRL 37344 for a further hour, lipolysis", "assay_type": "cell-based, mouse", "conditions": "for lipolytic effect of the beta 3 agonist after pre-incubation: 4 hour pre-incubation at varying concentrations, then 50 nanomolar BRL 37344 for a further hour", "description": "Referring now to FIG. 2, an experiment was performed to determine whether hGH (FIG. 2A) or AOD 9604 (FIG. 2B) sensitises the adipocytes to the actions of the beta 3 agonists. First, the adipocytes were incubated with hGH or AOD 9604 at varying concentrations for four hours. The cells were then further incubated with a half-maximal concentration of BRL 37344 of 50 nanomolar for a further hour."}, "[3]": {"tested_on": "beta 3 messenger RNA", "assay": "beta 3 messenger RNA expression in adipocytes after four-hour incubation (PCR/RT-PCR, normalised to β-actin)", "assay_type": "cell-based, mouse", "conditions": "4 hour incubation", "description": "Referring now to FIG. 3, the effect of the four-hour incubation of the adipocytes with hGH (FIG. 3A) or AOD 9604 (FIG. 3B) at two concentrations on expression of beta 3 messenger RNA was assessed using PCR/RT-PCR analysis of the content of beta 3 messenger RNA, using β-actin to normalise the data."}, "[4]": {"tested_on": "beta 3 messenger RNA", "assay": "beta 3 messenger RNA expression after chronic treatment of ob/ob mice", "assay_type": "in vivo", "conditions": "versus control ob/ob mice"}, "[5]": {"tested_on": "ob/ob mice", "assay": "fat mass after chronic treatment of ob/ob mice", "assay_type": "in vivo", "from_the_text": "It is believed that the obesity reducing effect of AOD9604 is at least in part a result of this sensitisation to the lipolytic affects of endogenous catecholamines (ie. epinephrine). Accordingly, chronic co-administration of AOD9604 and a beta 3 agonist will enhance the anti-obesity action of either agent administered alone."}, "[6]": {"target": "beta 3 adrenergic receptor (Mus musculus, UniProt P25962)", "sequence (P25962 whole entry)": "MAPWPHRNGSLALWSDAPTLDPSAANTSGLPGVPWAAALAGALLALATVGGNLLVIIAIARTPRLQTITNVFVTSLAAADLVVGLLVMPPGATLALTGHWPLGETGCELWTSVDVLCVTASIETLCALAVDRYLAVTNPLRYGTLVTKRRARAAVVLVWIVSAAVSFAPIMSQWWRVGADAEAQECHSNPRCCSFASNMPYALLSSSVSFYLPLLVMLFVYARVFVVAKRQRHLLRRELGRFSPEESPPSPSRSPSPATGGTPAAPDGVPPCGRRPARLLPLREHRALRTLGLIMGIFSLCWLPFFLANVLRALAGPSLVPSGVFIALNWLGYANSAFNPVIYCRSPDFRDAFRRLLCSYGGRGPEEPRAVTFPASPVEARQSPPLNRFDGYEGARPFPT", "assay": "agonism at the beta 3 adrenergic receptor"}, "[7]": {"tested_on": "C57Bl/6J (Ob/Ob) mouse", "conditions": "by injection; cited from earlier work"}}, "note": "“Also recorded” adds a separate entry of the source."}
{"compound": "Tyr-hGH 177-191 [AOD9604]", "values": [{"measurement": "shape of lipolytic dose response", "setting": "[1]", "result": "bell-shaped acute lipolytic response"}, {"measurement": "lipolytic effect of the beta 3 agonist after pre-incubation", "setting": "[2]", "result": "synergistic effect; also recorded: enhanced"}, {"measurement": "expression of beta 3 messenger RNA", "setting": "[3]", "result": "increase"}, {"measurement": "beta 3 messenger RNA in brown adipocytes", "setting": "[4]; 0.25 mg/kg/day for 14 days", "result": "increase"}, {"measurement": "beta 3 messenger RNA in white adipocytes", "setting": "[4]; 0.25 mg/kg/day for 14 days", "result": "increase"}, {"measurement": "fat mass of the treated animals", "setting": "[5]", "result": "significant reduction"}, {"measurement": "agonist activity at the beta 3 adrenergic receptor", "setting": "[6]", "result": "not an agonist"}]}
{"compound": "hGH 177-191: synthetic peptide corresponding to amino acid residues 177-191 of the human growth hormone sequence (LRIVQCRSVEGSCGF; UniProt P01241 203-217, looked up, fragment)", "values": [{"measurement": "adipose tissue mass", "setting": "[7]", "result": "reduce"}, {"measurement": "body weight gain", "setting": "[7]", "result": "reduce"}]}
{"compound": "C[C@H](Cc1ccc(OCC(=O)O)cc1)NC[C@H](O)c1cccc(Cl)c1", "note": "[BRL 37344]", "values": [{"measurement": "concentration giving maximal lipolytic effect", "setting": "[1]; 1 hour incubation", "result": 1, "unit": "µM"}, {"measurement": "maximal effect, glycerol released", "setting": "[1]; 1 hour incubation, at 1 μM", "result": "approximately 6 μM per milligram protein"}, {"measurement": "shape of lipolytic dose response", "setting": "[1]", "result": "sigmoid-shaped dose response"}, {"measurement": "EC50", "setting": "[2]; adipocytes, read-out: half-maximal concentration (lipolysis)", "result": 50, "unit": "nM"}]}
{"compound": "hGH: human growth hormone", "values": [{"measurement": "lipolytic effect of the beta 3 agonist after pre-incubation", "setting": "[2]", "result": "synergistic effect; also recorded: enhanced"}, {"measurement": "beta 3 messenger RNA in brown adipocytes", "setting": "[4]; 1.0 mg/kg/day for 14 days", "result": "increase"}, {"measurement": "beta 3 messenger RNA in white adipocytes", "setting": "[4]; 1.0 mg/kg/day for 14 days", "result": "increase"}]}
